Laboratory results from patent publication US20130189775A1, “MODULATION OF THE […] RECEPTOR mTOR TO INHIBIT STEM CELL DIFFERENTIATION INTO NEURONS” (priority 2011, published 2013).
“Also recorded” adds a separate entry of the source.

Tests used:
ReN cells [1] = assay: ReN cell neural progenitor differentiation, phase contrast microscopy; format: cell-based, human; conditions: for block of neural progenitor differentiation by PI3-K / Akt inhibitors: ReN cells differentiated in presence of inhibitor for 6-7 days (FIG. 3, FIG. 4)
Experimental: To evaluate the role of kinases in the differentiation of neural stem cells, we added kinase inhibitors from the BIOMOL kinase inhibitor library to the culture during the differentiation process. Kinase inhibitors were replaced on alternate days during media change. Cultures were grown for 6-7 days. We used phase contrast imaging and immunocytochemistry to understand the difference in the morphological differentiation.
General procedure for neuronal stem cell culture on laminin surface: • 96 well CellBind™ treated plates were washed with 70% ethanol and kept ON in the hood • Next day morning, plates were washed twice with 1×PBS • Laminin (50 μl, 20 μg/ml) was added to the wells and incubated 37° C. incubator for 5 hrs. • Wells were washed with 1×PBS after incubation. • Cells were seeded at 20,000 cells/well • For undifferentiated cells, the cultures were grown for 9 days. Media was changed everyday with growth factor supplementation • For differentiated cells, the growth factor deprived media was added after next day after seeding and cells were grown further for 6 days with media changes every other day. • Rapamycin and other inhibitors were added to the cells when the media was changed to growth factor independent media. Media was maintained throughout the study and changed on alternate days. ReNcell NSC Maintenance Medium contains DMEM/F12 w/o HEPES, w/L-Glutamine, human serum albumin, human transferrin, putrescine dihydrochloride, human recombinant insulin, L-thyroxine, Tri-iodo-thyronine, progesterone, sodium selenite, heparin, corticosterone. […] The growth factors used were EGF (Epidermal growth factor) and bFGF (Basic fibroblast growth factor).
Kinase inhibitors (1 μM) was added to the cells next day after seeding and replenished during media changes on alternate days. Phase contrast microscopy was done after 6 days as described below. […]
After the experiment, the cells were fixed with 4% paraformaldehyde and washed thrice with 1×PBS. Cells were assessed using a Ziess Axiovert 200M inverted Brightfield/fluorescence microscope.

ReN cells [2] = assay: Epic label-free RWG biosensor receptor assay on ReN cells; format: cell-based, human; conditions: Epic single step assay; for agonist response profile, undifferentiated versus differentiated cells: ReN cells (FIG. 6); for agonist response of differentiated cells: ReN cells differentiated without rapamycin (FIG. 6)
Experimental: The label-free biosensor assays for various receptors was done in the presence of various concentrations of a typical agonist using Corning Epic® system. Assay on undifferentiated cells was carried out simultaneously. […] Undifferentiated receptor profiles were similar to rapamycin treated cells indicating the blockage of differentiation by rapamycin.
ReN Cells were treated with or without rapamycin (5 μM) for 6 days. Cells were washed with HBSS and loaded onto Epic instrument for a single step assay with various receptor agonists. Undifferentiated cells grown for 3-4 days (till confluency) and run of Epic instrument as described above.

[3] = system: quiescent human epidermoid carcinoma A431; assay: EGF-induced DMR response of quiescent A431 cells (optical biosensor); format: cell-based
From the text: The DMR signal mediated through a particular target is an integrated and quantifiable signal that is a sum of contributions from mass redistribution occurring at different distances away from the sensor surface. Because of the complex nature of cell signaling, the activation of distinct cell signaling mediated through different targets might result in similar overall DMR signal. However, because of the participation of unique sets of cellular targets for a specific signaling event, the modulation profiles mediated by a predetermined set of selective modulators might provide a means to classify the specificity of cell signaling being activated by a particular stimulus. Therefore, the DMR response can be treated as a unique and perfect readout for systems biology studies of living cells. […] The effect of various known inhibitors/drugs on the DMR response of quiescent A431 cells linked the cell response to mainly the Ras/mitogen-activated protein (MAP) kinase pathway, which primarily proceeds through MEK.
Another biosensor output parameter can be the kinetics of any of the aspects of data output. For example, the rate at the completion of the phase transitions. For example, how fast are the phase transitions completed or how long does it take to complete data output. Another example of the kinetics that can be measured would be the length of time for which an overall phase of the data output takes. Another example is the total duration of time of one or both of the P- and N-DMR phases. Another example is the rate or time in which it takes to acquire the total amplitudes of one or both of the P- and N-DMR phases. Another example can be the transition time τ from the P- to N-DMR phase. The kinetics of both P-DMR and N-DMR events or phases can also be measured. For example, stimulation of human quiescent human epidermoid carcinoma A431 with epidermal growth factor (EGF) results in a dynamic response consisting of at least three phases. […]

Molecule: O=C(O)c1ccc2nc(-c3ccccc3)c(-c3ccccc3)nc2c1 [BML-257]
- block of neural progenitor differentiation by PI3-K / Akt inhibitors (ReN cells [1]): did not block the neural progenitor differentiation

Molecule: CNC[C@H](O)c1ccc(O)c(O)c1 [epinephrine]
- agonist response profile, undifferentiated versus differentiated cells (ReN cells [2]): different profiles

Molecule: EGF: epidermal growth factor
- EC50 ([3]; EGF stimulation, read-out: EC50 from amplitudes of the N-DMR signals): ~1.45 nM
- Kd ([3]; EGF stimulation, read-out: Kd from one-phase decay constant κ of the N-DMR signal): 5.76 nM

Molecule: COc1cc2ncnc(Nc3cccc(Cl)c3)c2cc1OC [AG1478]
- suppression of EGF-induced DMR response [3]: fully suppressed

Molecule: NCCc1c[nH]c2ccc(O)cc12 [serotonin]
- agonist response of differentiated cells (ReN cells [2]): did not responds to these stimuli

Molecule: O=c1[nH]c2ccccc2n1C1CCN(Cc2ccc(-c3[nH]c4cc5ncnc5cc4nc3-c3ccccc3)cc2)CC1 [A6730]
- block of neural progenitor differentiation by PI3-K / Akt inhibitors (ReN cells [1]): did not block the neural progenitor differentiation

Molecule: C[C@@H](N)[C@H]1CC[C@H](C(=O)Nc2ccncc2)CC1 [Y27632]
- block of neural progenitor cell differentiation by ROCK inhibitor (ReN cells [1]; Y27632 1 μM, 6-7 days (FIG. 5)): had no effect on the differentiation process; also recorded: did not block neural progenitor cell differentiation

Molecule: NCCc1ccc(O)c(O)c1 [dopamine]
- agonist response profile, undifferentiated versus differentiated cells (ReN cells [2]): different profiles

Molecule: NCCCC(=O)O [GABA]
- agonist response of differentiated cells (ReN cells [2]): did not responds to these stimuli

Molecule: Nc1ncnc2c1ncn2[C@@H]1O[C@H](CO)[C@@H](O)[C@H]1O [Adenosine]
- agonist response profile, undifferentiated versus differentiated cells (ReN cells [2]): different profiles
